Test [1] has as its system cytosolic cAMP in primary brown adipocytes. Description: Quantification of cellular cAMP (cAMP-Glo Assay). The test is classed as cell-based, mouse. As to the method: Changes in cytosolic cAMP concentrations were determined in primary brown adipocytes in response to ACTH- or isoproterenol stimulation using cAMP-Glo Assay (Promega) following the manufacturer’s instructions.

For test [2], the system named is Ucp1 mRNA in primary brown adipocytes. Put plainly: Ucp1 gene expression analysis (qRT-PCR), brown adipocytes. The test is classed as cell-based, mouse. As to the method:
(§1) Total RNA was isolated using Trisure (Bioline) and purified with SV total RNA Isolation System (Promega). Reverse transcriptase reactions were performed using SensiFAST cDNA Synthesis Kit (Bioline). Quantitative real-time PCR (qRT-PCR) was performed with SYBR green fluorescent dye in 384-well format using LightCycler 480 (Roche). General Transcription Factor IIB (Gtf2b) served as an internal control. To be able to calculate relative gene expression levels of samples, standard reactions containing serial diluted pooled cDNA of all samples (Pure, 1:2, 1:4, 1:8, 1:16, 1:32 and 1:64) as a template were used to establish a standard curve. The RNA abundance of Ucp1 gene was normalized to the housekeeping gene Gtf2b. The following primers were used: […]

Test [3] relates to Ucp1 mRNA in primary white adipocytes. Put plainly: Ucp1 gene expression analysis (qRT-PCR), white adipocytes. The following applies: two different doses of ACTH, iWAT adipocytes, normalized to Gtf2b, n = 4, Figure 3B. It counts as cell-based, mouse. As to the method: as §1
In general terms: In qPCR the cycle at which signal appears reflects the starting amount.

Test [4] deals with primary brown adipocytes of UCP1^-/-. Description: Respirometry in primary brown adipocytes of UCP1^-/- mice. It counts as cell-based, mouse. The conditions noted are these: ACTH 1 μM, n = 3, Figure 2G. The protocol:
Oxygen consumption of primary brown adipocytes was measured at 37°C using microplate-based respirometry (XF96 extracellular flux analyzer, Seahorse Bioscience) as described previously ([Li et al., 2014b]) following the subsequent protocol at day 7 of differentiation. Prior to the respiration measurement, primary cells were washed with warmed, unbuffered assay medium (DMEM basal medium supplemented with 25 mM glucose, 31 mM NaCl, 2 mM GlutaMax and 15 mg/l phenol red, pH 7.4) (basal assay medium). Subsequent to the medium replacement with basal assay medium containing 1–2% essentially fatty acid free bovine serum albumin (BSA), cells were incubated at 37°C in a CO2-free incubator for 1 h. Assay reagents were loaded into the drug injections ports of the sensor cartridges at 10X in basal assay medium (no BSA). After assessment of basal oxygen consumption in untreated cells oligomycin (5 μM) was injected to inhibit coupled respiration and to determine basal leak respiration. […] By the addition of FCCP (1 μM) maximal respiratory capacity was determined. Lastly, non-mitochondrial oxygen consumption was assessed by blocking mitochondrial respiration with antimycin A (5 μM). […] Oxygen consumption rates were automatically calculated by the Seahorse XF-96 software. […] Results are predominately expressed as stimulated respiration which is calculated as fold increase of basal leak.

The test system of test [5] is Ucp1 gene expression in primary brown adipocytes of Ucp1^ki/ki mice. Put plainly: Luciferase assay, FLUC activity as surrogate for Ucp1 expression. The following applies: overnight stimulation, normalized to total protein content, n = 3, Figure 1D. The test is classed as cell-based, mouse. As to the method: After overnight stimulation of primary brown adipocytes of Ucp1^ki/ki mice luciferase activity was assayed using a commercial kit system (Luciferase Assay System Freezer Pack E4030, Promega GmbH). Primary cells were lysed in 1x reporter lysis buffer by shaking for 20 min at room temperature. 10 μl lysate was mixed with 50 μl luciferase assay substrate solution, and the mixture was measured by FB12 in a luminometer (Single Tube Luminometer, Titertek-Berthold GmbH). Bioluminescence readouts were normalized to total protein content.
We then measured FLUC activity in primary brown adipocytes from Ucp1^ki/ki reporter gene mice to determine the effect of the GsPCR ligands on Ucp1 gene expression in response to overnight stimulation. As the expression of Fluc in these cells is driven by Ucp1promoter, FLUC activity served as a surrogate for Ucp1 expression.

The next test has as its system T37i cells. The following applies: ref Iwen et al., 2008, van den Beukel et al., 2014; cited from earlier work. The text has this: (§2) The melanocortins ACTH and α-MSH are known for their lipolytic action in rodent adipocytes, as first reported in 1958 ([Lafontan, 2012]; [Braun et al., 2018]). […] ACTH enhanced BAT function in obese rats ([York and Al-Baker, 1984]), and increased glucose transport and respiration in isolated brown adipocytes ([Marette and Bukowiecki, 1990]) via fatty acid activation of mitochondrial uncoupled respirati ...

Another test has as its system BAT. The conditions noted are these: supraphysiological dose, 15 μM ACTH; ref van den Beukel et al., 2014; cited from earlier work.
Excerpt: as §2

Test [6] deals with immortalized murine adipocytes. The following applies: ref Iwen et al., 2008, van den Beukel et al., 2014; cited from earlier work.
Excerpt: as §2

The test system of the next test is primary brown adipocytes. Description: Microplate-based respirometry (XF96), UCP1-mediated uncoupled respiration. It counts as cell-based, mouse. The protocol: Oxygen consumption of primary brown adipocytes was measured at 37°C using microplate-based respirometry (XF96 extracellular flux analyzer, Seahorse Bioscience) as described previously ([Li et al., 2014b]) following the subsequent protocol at day 7 of differentiation. Prior to the respiration measurement, primary cells were washed with warmed, unbuffered assay medium (DMEM basal medium supplemented with 25 mM glucose, 31 mM NaCl, 2 mM GlutaMax and 15 mg/l phenol red, pH 7.4) (basal assay medium). Subsequent to the medium replacement with basal assay medium containing 1–2% essentially fatty acid free bovine serum albumin (BSA), cells were incubated at 37°C in a CO2-free incubator for 1 h. Assay reagents were loaded into the drug injections ports of the sensor cartridges at 10X in basal assay medium (no BSA). After assessment of basal oxygen consumption in untreated cells oligomycin (5 μM) was injected to inhibit coupled respiration and to determine basal leak respiration. Next, effector was added to investigate UCP1-dependant uncoupled respiration. By the addition of FCCP (1 μM) maximal respiratory capacity was determined. Lastly, non-mitochondrial oxygen consumption was assessed by blocking mitochondrial respiration with antimycin A (5 μM). For some experiments, cells were pretreated for 1 h with 50 μM H89 (PKA inhibitor), 1–100 μM propranolol (β-adrenergic receptor antagonist), 40 μM Atglistatin (ATGL inhibitor) and 40 μM Hi76-0079 (HSL inhibitor) 1 h prior to the measurement. Oxygen consumption rates were automatically calculated by the Seahorse XF-96 software. Each experiment was repeated at least three times with similar results and five to eight replicate wells for every condition in each independent experiment. Results are predominately expressed as stimulated respiration which is calculated as fold increase of basal leak.
In our first screen, we tested whether these GsPCR ligands can activate oxygen consumption acutely in brown adipocytes. UCP1-mediated uncoupled respiration was quantified in cultured adherent intact primary brown adipocytes, according to a protocol established in our lab ([Li et al., 2014b]). After recording basal respiration and the fraction of coupled and uncoupled respiration, UCP1-dependent respiration was measured. Finally, maximal respiratory capacity and non-mitochondrial oxygen consumption were assessed by adding the uncoupling agent carbonyl cyanide 4-(trifluoromethoxy) phenylhydrazone (FCCP) and antimycin A was added to block the electron transport chain, respectively. All respiration assays were performed in the presence of BSA to buffer free fatty acid (FFA) levels in the respiration medium.

Where [7] appears, read: dose–response experiment, Figure 2A.

This is an account of results in PMC6344423, “Opposing Actions of Adrenocorticotropic Hormone and Glucocorticoids on UCP1-Mediated Respiration in Brown Adipocytes” (Frontiers in Physiology, 2019).

In the case of “ACTH: Murine ACTH(1-39), 39 amino acid peptide hormone, ligand for the melanocortin 2 receptor (MC2R) (SYSMEHFRWGKPVGKKRRPVKVYPNVAENESAEAFPLEF; Corticotropin; UniProt P01193 124-162, looked up)”, in test [1] (increasing concentrations, 30 min, n = 3, Figure 2D), the “Cytosolic cAMP levels after ACTH stimulation” value is “dose-dependent increase of cytosolic cAMP levels”. The response in test [1] (stimulation for 30 min, n = 3, non-linear regression, Figure 2D) was half-maximal at 1.49 µM (EC50). The “Maximal induction of Ucp1 mRNA relative to ISO” value in [2] (1 μM ACTH vs ISO 500 nM, Figures 3A,B) is “comparable to the effect of ISO treatment”. For the same substance, the “Ucp1 mRNA levels, differentiated brown adipocytes” value in test [2] (two different doses of ACTH, normalized to Gtf2b, n = 4, Figure 3A) is given as “dose-dependent increase in Ucp1 mRNA levels”. Also, the “Ucp1 mRNA levels, differentiated white adipocytes” value in test [3] was “dose-dependent increase in Ucp1 mRNA levels”. The “ACTH-stimulated respiration in UCP1^-/- compared to UCP1^+/+ cells” value in test [4] is on record as “attenuated in primary brown adipocytes of UCP1^-/-”. Moreover, the “FLUC (luciferase) activity as surrogate for Ucp1 expression” value in test [5] was “moderate rise in FLUC activity”. The “ACTH concentration at which adipocytes respond in cell culture” value with T37i cells is 50 nM. For the same substance, in the test with BAT, the “Glucose uptake into BAT” value was “increased glucose uptake into BAT”. In addition, the “ACTH concentration at which adipocytes respond in cell culture” value in [6] was 100 nM. Moreover, in the test with primary brown adipocytes (setting [7]), the “ACTH concentration that stimulated respiration (fold increase over basal leak respiration)” value was 200 nM and the “ACTH concentration with the most robust effect on stimulated respiration” value is 1 µM. Besides, the “Stimulated respiration (UCP1-dependent uncoupled respiration) as fold increase of basal leak respiration, GsPCR ligand screen” value in the test with primary brown adipocytes (primary brown adipocytes (129S6 mice), acute addition after oligomycin 5 μM, medium with 1–2% fatty acid free BSA, 37°C, n = 5, Figures 1B,C) was “most prominent induction of UCP1-dependant uncoupled respiration”.

As a reminder, the EC50 is the midpoint of the concentration-response curve. High values mean a need for much substance, low ones an effect from little substance.
